# Measurements reported in PubChem BioAssay AID2077 (NMMLSC, 2009).
# Activity calls are given as the source filed them. The rule behind the calls is not given here.
# Target: Bcl-2-like protein 10 (Homo sapiens) (UniProt Q9HD36)
# Assay: inhibitors of Bim-Bcl-B binding, confirmation, biochemical, dose response, multiplexed HTS hits (AID 2077)
# Settings: bead-based flow cytometry, Bim peptide-Bcl-B binding
# Chain of Bcl-2-like protein 10 (Homo sapiens) (Q9HD36 whole entry, looked up): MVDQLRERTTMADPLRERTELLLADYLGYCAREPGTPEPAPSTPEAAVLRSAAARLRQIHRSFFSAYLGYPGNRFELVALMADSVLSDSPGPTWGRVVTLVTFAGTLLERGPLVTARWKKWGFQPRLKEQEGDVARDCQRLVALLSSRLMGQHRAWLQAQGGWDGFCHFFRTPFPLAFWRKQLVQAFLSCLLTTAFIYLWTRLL
row,EC50 [µM],Structure (SMILES)
1,0.62,COc1ccc(N2C(=O)C(Cl)=C(NC3C(=O)N(c4ccccc4)N(C)C3C)C2=O)cc1 (stereo unspecified)

# Same assay, conditions: bead-based flow cytometry, Bim peptide-Bcl-B binding; at 100 µM (top of the series)
row,Structure (SMILES),"response change, negative = inhibition"
1,O=C1c2ccccc2C(=O)N1CN(C(=O)COc1ccc(Cl)cc1Cl)c1cccc(F)c1,inactive
2,CN(CCO)c1cc(Sc2nc3ccccc3s2)c2nonc2c1[N+](=O)[O-],inactive
3,Cc1ccc(-c2cc(-c3ccc(C)o3)nc(N)c2C#N)cc1,inactive
4,COc1ccccc1NC1=C(NC(C)=O)C(=O)c2ccccc2C1=O,inactive
5,O=C(/C=C/c1ccc(-c2ccccc2[N+](=O)[O-])o1)c1ccccc1,inactive
6,Cc1cc2nn(-c3cccc4ccccc34)nc2cc1N,inactive
7,CC(=O)OCCCNc1cc(Sc2nc3ccccc3s2)c2nonc2c1[N+](=O)[O-],inactive
8,O=[N+]([O-])c1c(NCCCO)cc(Sc2nc3ccccc3s2)c2nonc12,inactive
9,CCN(CC)C(=O)COC(=O)c1cc(-c2ccco2)nc2ccccc12,inactive
10,CCN(CC)c1ccc(NC(=O)COc2ccccc2C)cc1S(=O)(=O)Nc1ccccc1OC,inactive
11,Cc1nnc(Sc2cc(NCCO)c([N+](=O)[O-])c3nonc23)s1,inactive
12,COc1ccc(CCNC(=O)c2ccc3nc(-c4ccco4)c(-c4ccco4)nc3c2)cc1OC,inactive
13,CNC(CC(=O)c1ccc([N+](=O)[O-])cc1)C(Cl)(Cl)Cl (stereo unspecified),inactive
14,Cc1ccc(-c2nc3c(c(=O)[nH]c(=O)n3Cc3ccccc3)n2C)o1,inactive
15,C=CS(=O)(=O)c1sc(Cl)c(N2CCOCC2)c1[N+](=O)[O-],inactive
16,COc1cc(N=C2SSNC2Cl)c(OC)cc1Cl (stereo unspecified),inactive

# The remaining lines, values ahead:
row,"response change, negative = inhibition",Structure (SMILES)
1,inactive,CNC1CCC(Br)CC(C(=O)/C=C/c2cccc(OC)c2OC)C1=O (stereo unspecified)
2,inactive,Cc1ccc(-c2cc(-c3ccc(F)cc3)c(C#N)c(N)n2)o1
3,inactive,CCOc1ccccc1CNc1ccc(O)cc1
4,inactive,COc1cc(CNc2ccc3[nH]c(=O)[nH]c3c2)cc(Br)c1OCC(=O)NC(C)(C)C
5,inactive,CCN(CC)c1ccc(NC(=O)c2ccccc2F)cc1S(=O)(=O)Nc1ccccc1OC
6,inactive,O=C1C(Cl)=C(N2CCN(c3ccccc3[N+](=O)[O-])CC2)C(=O)c2ccccc21
7,inactive,Cc1ccc(-c2cc(C(=O)Nc3nccs3)c3ccccc3n2)o1
8,inactive,CCN1C(=O)/C(=C\C=C2/C=CC=CN2CC)SC1=S
9,inactive,Oc1ccc(NCc2ccccc2OCc2ccccc2)cc1
